Drawing on patent US5244892A, “Cephem compounds, and antibacterial agents” (Kyorin Pharmaceutical Co., Ltd., priority 1990, dated 1993), this text covers MIC for 7 molecules.

Assay in all cases: in vitro antibacterial activity (minimum inhibitory concentration), standard method of the Japan Chemotherapy Society
Holding throughout (assay type): cell-based

For assay [1], the system named is Staphylococcus aureus 209P. To be noted: read-out: Minimum inhibitory concentration for growth.
A further assay concerns S. epidermidis IID 866. The following applies: Staphylococcus epidermidis.
The test system of assay [2] is Streptococcus pneumoniae Type III. To be noted: read-out: Minimum inhibitory concentration for growth.
The subject of assay [3] is Escherichia coli ATCC 10536. To be noted: ATCC10536, Gram (-), 10^6 cells/ml, read-out: Minimum inhibitory concentration for growth.
The test system of assay [4] is Klebsiella pneumoniae 1-220 S. To be noted: 1220S, read-out: Minimum inhibitory concentration for growth.
In assay [5] the test system is Pseudomonas aeruginosa IFO 12689.
Setting [6] is: IID866, Gram (+), 10^6 cells/ml, read-out: Minimum inhibitory concentration for growth.
The mark [7] stands for this setting: IFO12689, Gram (-), 10^6 cells/ml, read-out: Minimum inhibitory concentration for growth.

Values after ≈ are worked out from the molar mass of the structure shown. Like-named read-outs stand apart in the source and are kept apart here. Bounds are passed on as bounds.

Consider `CC(C)(O/N=C(\C(=O)N[C@@H]1C(=O)N2C(C(=O)[O-])=C(C[n+]3ccccc3)CS[C@H]12)c1csc(N)n1)C(=O)O` [CAZ, ceftazidime, reference compound], for which the MIC in assay [1] amounted to 3.13 µg/mL (≈ 5.73 µM); in the assay with S. epidermidis IID 866 (IID866, read-out: Minimum inhibitory concentration for growth) it was 3.13 µg/mL (≈ 5.73 µM); in assay [2], 0.39 µg/mL (≈ 0.714 µM); in assay [3] it was 0.05 µg/mL (≈ 0.0915 µM); in assay [4] it was 0.2 µg/mL (≈ 0.366 µM); in assay [5] (IFO12689, read-out: Minimum inhibitory concentration for growth) it was 3.13 µg/mL (≈ 5.73 µM).
For the molecule `CO/N=C(\C(=O)N[C@@H]1C(=O)N2C(C(=O)O)=C(COC(C)=O)CS[C@H]12)c1csc(N)n1` [CTX, cefotaxime, reference compound], the MIC in assay [1] (Gram (+), 10^6 cells/ml) came to 0.78 µg/mL (≈ 1.71 µM); with S. epidermidis IID 866 (setting [6]) it was 0.78 µg/mL (≈ 1.71 µM); in assay [2] (Gram (+), 10^6 cells/ml) it was 0.1 µg/mL (≈ 0.22 µM); in assay [3], 0.025 µg/mL (≈ 0.0549 µM); in assay [4] (Gram (-), 10^6 cells/ml) it was 0.05 µg/mL (≈ 0.11 µM); in assay [5] (setting [7]), 25 µg/mL (≈ 54.9 µM).
For the molecule `CO/N=C(\C(=O)N[C@@H]1C(=O)N2C(C(=O)O)=C(CSc3cc(=O)c4cc(O)c(O)cc4s3)CS[C@H]12)c1csc(N)n1` [Example 75, Sodium 7β-[(Z)-2-(2-aminothiazole-4-yl)-2-methoxyiminoacetamido]-3-(6,7-dihydroxy-4-oxo-4H-1-benzothiopyran-2-yl) thiomethyl-3-cephem-4-carboxylate], the MIC in assay [1] (Gram (+), 10^6 cells/ml) was 0.39 µg/mL; with S. epidermidis IID 866 (setting [6]) it was 0.78 µg/mL; in assay [2] (Gram (+), 10^6 cells/ml), 0.1 µg/mL; in assay [3], ≤ 0.0063 µg/mL; in assay [4] (Gram (-), 10^6 cells/ml) it was ≤ 0.0063 µg/mL; in assay [5] (setting [7]) it was 0.39 µg/mL.
On to `CO/N=C(\C(=O)N[C@@H]1C(=O)N2C(C(=O)O)=C(CSc3cc(=O)c4cc(O)c(O)cc4s3)CS[C@H]12)c1nsc(N)n1` [Example 90, Sodium 7β[(Z)-2-(5-amino-1,2,4-thiadiazole-3-yl)-2-methoxyiminoacetamido]-3-(6,7-dihydroxy-4-oxo-4H-1-benzothiopyran-2-yl) thiomethyl-3-cephem-4-carboxylate], for which the MIC in assay [1] (Gram (+), 10^6 cells/ml) is 1.56 µg/mL; with S. epidermidis IID 866 (setting [6]), 1.56 µg/mL; in assay [2] (Gram (+), 10^6 cells/ml) it was 0.1 µg/mL; in assay [3] it was ≤ 0.0063 µg/mL; in assay [4] (Gram (-), 10^6 cells/ml), ≤ 0.0063 µg/mL; in assay [5] (setting [7]), 0.05 µg/mL.
With `Nc1nc(/C(=N/OCC(=O)O)C(=O)N[C@@H]2C(=O)N3C(C(=O)O)=C(CSc4sc5cc(O)c(O)cc5c(=O)c4Br)CS[C@H]23)cs1` [Example 100, Disodium 7β-[(Z)-2-(2-aminothiazole-4-yl)-2-carboxymethoxyiminoacetamido]-3-(3-bromo-6,7-dihydroxy-4-oxo-4H-1-benzothiopyran-2-yl)thiomethyl-3-cephem-4-carboxylate], the MIC in assay [1] (Gram (+), 10^6 cells/ml) is 12.5 µg/mL; in the assay with S. epidermidis IID 866 (setting [6]), 12.5 µg/mL; in assay [2] (Gram (+), 10^6 cells/ml), 3.13 µg/mL; in assay [3], ≤ 0.0063 µg/mL; in assay [4] (Gram (-), 10^6 cells/ml), ≤ 0.0063 µg/mL; in assay [5] (setting [7]), 0.1 µg/mL.
For the molecule `Nc1nc(/C(=N/OCC(=O)O)C(=O)N[C@@H]2C(=O)N3C(C(=O)O)=C(CSc4cc(=O)c5cc(O)c(O)cc5s4)CS[C@H]23)cs1` [Example 108, Disodium 7β-[(Z)-2-(2-aminothiazole-4-yl)-2-carboxymethoxyiminoacetamido]-3-(6,7-dihydroxy-4-oxo-4H-1-benzothiopyran-2-yl)thiomethyl-3-cephem-4-carboxylate], the MIC in assay [1] (Gram (+), 10^6 cells/ml) was 6.25 µg/mL; with S. epidermidis IID 866 (setting [6]), 12.5 µg/mL; in assay [2] (Gram (+), 10^6 cells/ml), 0.78 µg/mL; in assay [3], ≤ 0.0063 µg/mL; in assay [4] (Gram (-), 10^6 cells/ml), ≤ 0.0063 µg/mL; in assay [5] (setting [7]), 0.05 µg/mL.
For the molecule `CC(C)(O/N=C(\C(=O)N[C@@H]1C(=O)N2C(C(=O)O)=C(CSc3cc(=O)c4cc(O)c(O)cc4s3)CS[C@H]12)c1csc(N)n1)C(=O)O` [Example 110, Disodium 7β-[(Z)-2-(2-aminothiazole-4-yl)-2-(1-carboxy-1-methylethoxy)iminoacetamido]-3-(6,7-dihydroxy-4-oxo-4H-1-benzothiopyran-2-yl)thiomethyl-3-cephem-4-carboxylate], the MIC is 6.25 µg/mL in assay [1] (Gram (+), 10^6 cells/ml); 12.5 µg/mL with S. epidermidis IID 866 (setting [6]); 0.78 µg/mL in assay [2] (Gram (+), 10^6 cells/ml); ≤ 0.0063 µg/mL in assay [3]; ≤ 0.0063 µg/mL in assay [4] (Gram (-), 10^6 cells/ml); 0.05 µg/mL in assay [5] (setting [7]).
